In patent US9549884B2, “Retinoid derivatives and process for their preparation” (SELEGO AB, priority 2013, dated 2017):
In brackets after ≈: the same amount, converted by molar mass.

Tests used:
[1] = In vitro skin corrosion membrane barrier test (CORROSITEX Assay)
Protocol: The skin corrosive potential of compound (1a) was analyzed. Corrosive chemicals are dependent on their grade of corrosivity able to break through the bio-barrier membrane employed in the “in vitro Membrane barrier test (CORROSITEX® Assay)” (see EVCAM (2000) ESAC statement on the application of the Corrositex® assay for skin corrosivity testing. The test system is composed of a synthetic bio-barrier that is placed on a chemical detection system (CDS). The time necessary to activate the CDS allows to distinguish between Corrosive© and non-corrosive (NC) test substances. Hereby the test item was placed atop the bio-barrier membranes. The CDS activation was assessed as a color change or a change in consistency. […] Compound (1a) accordingly was classified as non-corrosive.

[2] = Highest soluble concentration in DMSO; format: physicochemical; details: organic solvent or mixture
[3] = Storage stability study checked by HPLC; format: physicochemical; details: 0-4° C., 40-90% humidity
Protocol: A comparison in stability between Compound (Ia) and the substance retin-15-yl ester retinoic acid (CAS No. 15498-86-9) was outlined by performing HPCL analysis of the two compounds throughout an extended storage period.
The stability study was performed at 0-4° C. and 40-90% humidity. The samples of each product, packed in polyethylene bag inside a closed polyethylene box, were maintained under the above mentioned condition for the given time (see below). The stability of the product was checked by HPLC analysis using the method reported here below: A Young Lin YL9100 HPLC System was equipped with a variable volume automatic injector and a YL-Clarity data system. A Capcellpack UG 120 C-18, 150×4.6 mm, 5 μm, column from Agilent Technologies was used with a column temperature of 25±2° C., a flow rate of 1.5 ml/min, an injection volume of 10 μl, a wavelength of 326 nm. The mobile phase was A: water containing 0.1% acetic acid; B: acetonitrile containing 0.1% acetic acid; C: methanol containing 0.1% acetic acid; and D: isopropanol. For a run time of 40 min the gradient was: […]
The Working Solution: dissolve the sample under stability study in acetonitrile in a concentration of 1 mg/ml and inject as it.
With reference to FIG. 1 and FIG. 2, the HPLC peaks with the highest area percentage (retention time 26.1 for Compound (1a) and 12.2 for retin-15-yl ester retinoic acid).

[4] = system: reconstituted three-dimensional human epidermis model (EPISKIN-SM); experiment: In vitro skin irritation test, EPISKIN-Standard Model, MTT; format: cell-based
Protocol: The skin irritant potential of compound (1a) was analyzed with a reconstituted three-dimensional human epidermis model, the EPISKIN-Standard Model® (EPISKIN-SM®) as a replacement for the Draize Skin Irritation Test (OECD TG 404) to distinguish between UN GHS “Category 2” skin irritating test substances and not categorized test substances (“No Category”) which may be considered as non-irritant. Hereby, the test item was applied topically. Cytotoxicity is expressed as reduction of mitochondrial dehydrogenase activity measured by formazan production from MTT after a 15 min exposure and 42 h post incubation period and compared to those of the concurrent negative controls.
The relative mean tissue viability after 15 min of exposure and 42 h post incubation was >50%. The test item, compound (1a) is therefore classified as “non-irritant” in accordance with UN GHS “No Category”.

BALB/c 3T3 cells = experiment: In vitro phototoxicity test, neutral red uptake with and without UVA; format: cell-based
Protocol: In the present study the phototoxicity effects of compound (1a) were analyzed by dissolving the test item in DMSO and diluting to 1.100 ratio with Earle's balanced test solution. BALB/C 3T3 cells were treated for 1 h with different concentrations of the test solution at 37±1±° C. and further 50 min in absence and in presence of a non-toxic dose of UVA light, respectively. One day after treatment cytotoxicity was analyzed as a measure of reduction of neutral red uptake and compared to the controls. […] However, since the calculated mean photo effect (MPE) is <0.1 (0.027 in a rangefinder experiment; 0.056 in the main experiment) the test item is classified as non-toxic.

Row | SMILES | skin corrosivity classification [1] | mean time required to activate the CDS ([1]; Corrositex bio-barrier membrane) [min] | solubility [2] [µg/mL] | stability (HPLC) ([3]; after about two months) | relative mean tissue viability ([4]; 15 min exposure, 42 h post incubation) [%] | skin irritation classification (UN GHS) ([4]; UN GHS No Category) | phototoxicity classification (BALB/c 3T3 cells; MPE <0.1) | cytotoxic effect with UVA radiation (BALB/c 3T3 cells; in case of UVA radiation) | mean photo effect (MPE) (BALB/c 3T3 cells; main experiment) | mean photo effect (MPE) (BALB/c 3T3 cells; rangefinder experiment) | decrease of purity with respect to the starting time (HPLC) ([3]; in one month) [%]
1 | CC1=C(/C=C/C(C)=C/C=C/C(C)=C/C(=O)OCCNC(=O)c2cccnc2)C(C)(C)CCC1 [Compound (1a), 2-(nicotinamido)-ethyl retinoate] | non-corrosive | > 60 | 2000 (≈ 4.46 mM) | practically stable | > 50 | non-irritant | non-toxic | slight cytotoxic effect | 0.056 | 0.027 | 
2 | CC1=C(/C=C/C(C)=C/C=C/C(C)=C/COC(=O)/C=C(C)/C=C/C=C(C)/C=C/C2=C(C)CCCC2(C)C)C(C)(C)CCC1 [retin-15-yl ester retinoic acid, reference compound] |  |  |  |  |  |  |  |  |  |  | 5
